Results taken from patent publication US10684294B2, “Diarylether-based fluorogenic probes for detection of hypochlorous acid or hydroxyl radical” (THE UNIVERSITY OF HONG KONG, priority 2015, dated 2020).

Assays:
[1] = Fluorescence response of probe to increasing hypochlorous acid concentration; settings: 10 μM probe
Protocol: Specifically, Compound HKOCl-3 is dissolved in 0.1 M phosphate buffer at pH 7.4 to form a 10 μM solution, with excitation and emission spectra at 490 nm and 527 nm, respectively. The 10 μM solution of compound HKOCl-3 is treated with hypochlorous acid at various concentrations.
Specifically, compound HJ-3-279 is dissolved in 0.1 M phosphate buffer at pH 7.4 to form a 10 μM solution, with excitation and emission spectra at 490 nm and 527 nm, respectively. The 10 μM solution of Compound HJ-3-279 is treated with hypochlorous acid at various concentrations.
Specifically, Compound BXY2142 is dissolved in 0.1 M phosphate buffer at pH 7.4 to form a 10 μM solution, with excitation and emission spectra at 530 nm and 557 nm, respectively. The 10 μM solution of Compound BXY2142 is treated with hypochlorous acid at various concentrations.
Specifically, compound HJ-3-259 is dissolved in 0.1 M phosphate buffer at pH 7.4 to form a 10 μM solution, with excitation and emission spectra at 562 nm and 585 nm, respectively. The 10 μM solution of Compound HJ-3-259 is treated with hypochlorous acid at various concentrations.

[2] = Reactivity of probe toward different ROS and RNS (HOCl selectivity); settings: ONOO− 10 μM
Protocol: (§1) The reactivity of compound HKOCl-3 is compared toward different reactive oxygen species (ROS) and reactive nitrogen species (RNS). Specifically, the 10 μM solution of compound HKOCl-3 is treated with various ROS and RNS. The concentration of highly reactive oxygen species (hydroxyl radical (^●OH), hypochlorous acid (HOCl), and peroxynitrite (ONOO^−)) is 10 μM. The concentration of ^1O2, O2^●−, ^●NO, ROO^●, TBHP and H2O2 is 100 μM.
as §1, with “HJ-3-279” for “HKOCl-3”
as §1, with “BXY2142” for “HKOCl-3”, “[…],” for “^1O2, O2^●−,”
as §1, with “HJ-3-259” for “HKOCl-3”, “with” for “toward”

[3] = Fluorescence response of probe to hydroxyl radical source (Fenton reagent; TCBQ/H2O2); settings: 5 μM probe, 0.1 M phosphate buffer pH 7.4, Fenton reagent or TCBQ/H2O2 (H2O2 10:1)
Protocol: (§2) Specifically, compound HYY166 is dissolved in 0.1 M phosphate buffer at pH 7.4 to form a 5 μM solution, with excitation and emission spectra at 490 nm and 520 nm, respectively. The 5 μM solution of compound HYY166 is treated with hydroxyl radical generated from different hydroxyl radical source: (1) Fenton reagent ([H2O2]:[FeCl2]=10:1); (2) Tetrachloro-1,4-benzoquinone (TCBQ)/H2O2 ([H2O2]:[TCBQ]=10:1) system.
as §2, with “HKOH-1” for “HYY166”, “504” for “490”, “525” for “520”

[4] = Reactivity of probe toward different ROS, RNS, FeCl2, FeCl3 and TCBQ (hydroxyl radical selectivity); settings: 5 μM probe, •OH, HOCl, ONOO−, FeCl2, FeCl3, TCBQ 5 μM, other ROS/RNS 50 μM, especially TCBQ/H2O2 system
Protocol: (§3) The reactivity of compound HYY166 is tested toward different reactive oxygen species (ROS), reactive nitrogen species (RNS), FeCl2, FeCl3 and TCBQ. Specifically, the 5 μM solution of compound HYY166 is treated with various ROS and RNS. The concentration of highly reactive oxygen species (hydroxyl radical (^●OH), hypochlorous acid (HOCl), and peroxynitrite (ONOO^−)), FeCl2, FeCl3 and TCBQ is 5 μM. The concentration of ^1O2, O2^●−, ^●NO, ROO^●, TBHP and H2O2 is 50 μM.
as §3, with “HKOH-1” for “HYY166”, “compared” for “tested”

[5] = 0.1 M phosphate buffer pH 7.4, excitation 490 nm, emission 527 nm
[6] = 10 μM probe, •OH, 1O2, O2•−, •NO, ROO•, TBHP, H2O2 100 μM, excitation 490 nm, emission 527 nm
[7] = excitation 504 nm, emission 525 nm
[8] = excitation 490 nm, emission 520 nm

## CCOC(=O)CCCN1c2cc3c(cc2C(C)CC1(C)C)C1(OC(=O)c2ccccc21)c1ccc(Oc2cc(Cl)c(O)c(Cl)c2)cc1O3 (stereo not shown) [BXY2142]
[1]; 0.1 M phosphate buffer pH 7.4, excitation 530 nm, emission 557 nm
  fluorescence intensity on treatment with hypochlorous acid at various concentrations: increases with increasing concentration of hypochlorous acid

## O=C1OC2(c3cc(Cl)c(O)cc3Oc3cc(Oc4cc(Cl)c(O)c(Cl)c4)c(Cl)cc32)c2ccccc21 (stereo not shown) [HJ-3-279]
[1]; [5]
  fluorescence intensity on treatment with hypochlorous acid at various concentrations: increases with increasing concentration of hypochlorous acid
[2]; [6]
  increase in fluorescence intensity with hypochlorous acid versus other ROS and RNS: much higher increase

## O=C1OC2(c3ccc(O)cc3Oc3cc(Oc4cc(Cl)c(O)c(Cl)c4)ccc32)c2ccccc21 (stereo not shown) [HKOCl-3]
[1]; [5]
  fluorescence intensity on treatment with hypochlorous acid at various concentrations: increases with increasing concentration of hypochlorous acid
[2]; [6]
  increase in fluorescence intensity with hypochlorous acid versus other ROS and RNS: much higher increase
[2]; 10 μM solution of BXY2142, •OH, other ROS/RNS 100 μM, excitation 530 nm, emission 557 nm
  increase in fluorescence intensity with hypochlorous acid versus other ROS and RNS: much higher increase

## O=C1OC2(c3cc(Cl)c(O)cc3Oc3cc(Oc4cc(I)c(O)c(I)c4)c(Cl)cc32)c2ccccc21 (stereo not shown) [HKOH-1]
[3]; [7]
  fluorescence intensity on treatment with hydroxyl radical source: increases with increasing concentration of hydroxyl radical source
[4]; [7]
  increase in fluorescence intensity with hydroxyl radical versus other ROS and RNS: much higher increase

## O=C1OC2(c3ccc(O)cc3Oc3cc(Oc4cc(I)c(O)c(I)c4)ccc32)c2ccccc21 (stereo not shown) [HYY166]
[3]; [8]
  fluorescence intensity on treatment with hydroxyl radical source: increases with increasing concentration of hydroxyl radical source
[4]; [8]
  increase in fluorescence intensity with hydroxyl radical versus other ROS and RNS: much higher increase
